Experimental data: PubChem BioAssay AID1745844 (Carcinogenic Potency Database (CPDB), 2022)
The source made the active and inactive calls. No rule for the calls is given here.

System: rodent lifetime carcinogenesis bioassay, tumor incidence TD50
Experiment: carcinogenic potency in animals, long-term in vivo studies, CPDB compilation (AID 1745844)

S=C(SN1CCOCC1)N1CCOCC1
TD50 (rat, strain Sprague-Dawley, females, in feed, site: kidney, lesion: several types, types named in the paper, dosed 112 weeks, study length 112 weeks): 338 mg/kg/day | TD50 (rat, strain Sprague-Dawley, females, in feed, site: kidney, lesion: squamous-cell carcinoma, dosed 112 weeks, study length 112 weeks): 571 mg/kg/day | TD50 (rat, strain Sprague-Dawley, females, in feed, site: kidney, lesion: urothelial carcinoma, dosed 112 weeks, study length 112 weeks): 571 mg/kg/day | TD50 (rat, strain Sprague-Dawley, females, in feed, site: kidney, lesion: urothelial papilloma, dosed 112 weeks, study length 112 weeks): 1740 mg/kg/day | TD50 (rat, strain Sprague-Dawley, females, in feed, site: urinary bladder, lesion: several types, types named in the paper, dosed 112 weeks, study length 112 weeks): 206 mg/kg/day | TD50 (rat, strain Sprague-Dawley, females, in feed, site: urinary bladder, lesion: squamous-cell carcinoma, dosed 112 weeks, study length 112 weeks): 1740 mg/kg/day | TD50 (rat, strain Sprague-Dawley, females, in feed, site: urinary bladder, lesion: squamous-cell papilloma, dosed 112 weeks, study length 112 weeks): 862 mg/kg/day | TD50 (rat, strain Sprague-Dawley, females, in feed, site: urinary bladder, lesion: urothelial carcinoma, dosed 112 weeks, study length 112 weeks): 862 mg/kg/day | TD50 (rat, strain Sprague-Dawley, females, in feed, site: urinary bladder, lesion: urothelial papilloma, dosed 112 weeks, study length 112 weeks): 571 mg/kg/day | TD50 (rat, strain Sprague-Dawley, females, in feed, site: urinary tract, lesion: several types, types named in the paper, dosed 112 weeks, study length 112 weeks): 96.9 mg/kg/day | TD50 (rat, strain Sprague-Dawley, males, in feed, site: kidney, lesion: several types, types named in the paper, dosed 112 weeks, study length 112 weeks): 528 mg/kg/day | TD50 (rat, strain Sprague-Dawley, males, in feed, site: kidney, lesion: squamous-cell carcinoma, dosed 112 weeks, study length 112 weeks): 1390 mg/kg/day | TD50 (rat, strain Sprague-Dawley, males, in feed, site: kidney, lesion: urothelial carcinoma, dosed 112 weeks, study length 112 weeks): 690 mg/kg/day | TD50 (rat, strain Sprague-Dawley, males, in feed, site: urinary bladder, lesion: several types, types named in the paper, dosed 112 weeks, study length 112 weeks): 130 mg/kg/day | TD50 (rat, strain Sprague-Dawley, males, in feed, site: urinary bladder, lesion: squamous-cell carcinoma, dosed 112 weeks, study length 112 weeks): 690 mg/kg/day | TD50 (rat, strain Sprague-Dawley, males, in feed, site: urinary bladder, lesion: squamous-cell papilloma, dosed 112 weeks, study length 112 weeks): 1390 mg/kg/day | TD50 (rat, strain Sprague-Dawley, males, in feed, site: urinary bladder, lesion: urothelial carcinoma, dosed 112 weeks, study length 112 weeks): 340 mg/kg/day | TD50 (rat, strain Sprague-Dawley, males, in feed, site: urinary bladder, lesion: urothelial papilloma, dosed 112 weeks, study length 112 weeks): 457 mg/kg/day | TD50 (rat, strain Sprague-Dawley, males, in feed, site: urinary tract, lesion: several types, types named in the paper, dosed 112 weeks, study length 112 weeks): 85.5 mg/kg/day

CCN=[N+]([O-])CC
TD50 (rat, strain Fischer 344, males, in drinking water, site: esophagus, lesion: several types, types named in the paper, dosed 30 weeks, study length 55 weeks): 0.0302 mg/kg/day | TD50 (rat, strain Fischer 344, males, in drinking water, site: liver, lesion: hemangiosarcoma, dosed 30 weeks, study length 55 weeks): 0.0347 mg/kg/day | TD50 (rat, strain Fischer 344, males, in drinking water, site: liver, lesion: hepatocellular carcinoma, dosed 30 weeks, study length 55 weeks): 0.0347 mg/kg/day | TD50 (rat, strain Fischer 344, males, in drinking water, site: liver, lesion: neurosarcoma, dosed 30 weeks, study length 55 weeks): 0.0971 mg/kg/day | carcinogen call (rat, strain Fischer 344, males, in drinking water, site: liver, lesion: several types, types named in the paper, dosed 30 weeks, study length 55 weeks): positive | TD50 (rat, strain Fischer 344, males, in drinking water, site: nasal cavity, lesion: several types, types named in the paper, dosed 30 weeks, study length 55 weeks): 0.022 mg/kg/day

CCOC(=O)[C@H](CCc1ccccc1)N[C@@H](C)C(=O)N1Cc2ccccc2C[C@H]1C(=O)O
TD50 (mouse, strain B6C3F1, females, by gavage, site: any site (literature study), lesion: several types, types named in the paper, dosed 104 weeks, study length 104 weeks): 8160 mg/kg/day (inactive) | carcinogen call (mouse, strain B6C3F1, females, by gavage, site: liver, lesion: hepatocellular adenoma, dosed 104 weeks, study length 104 weeks): negative (inactive) | TD50 (mouse, strain B6C3F1, females, by gavage, site: liver, lesion: hepatocellular carcinoma, dosed 104 weeks, study length 104 weeks): 966 mg/kg/day (inactive) | TD50 (mouse, strain B6C3F1, females, by gavage, site: lung, lesion: adenoma, dosed 104 weeks, study length 104 weeks): 5070 mg/kg/day (inactive) | TD50 (mouse, strain B6C3F1, females, by gavage, site: pituitary gland, lesion: adenoma, dosed 104 weeks, study length 104 weeks): 128 mg/kg/day (inactive) | TD50 (mouse, strain B6C3F1, males, by gavage, site: any site (literature study), lesion: several types, types named in the paper, dosed 104 weeks, study length 104 weeks): 221 mg/kg/day (inactive) | TD50 (mouse, strain B6C3F1, males, by gavage, site: liver, lesion: hepatocellular adenoma, dosed 104 weeks, study length 104 weeks): 623 mg/kg/day (inactive) | TD50 (mouse, strain B6C3F1, males, by gavage, site: liver, lesion: hepatocellular carcinoma, dosed 104 weeks, study length 104 weeks): 1640 mg/kg/day (inactive) | TD50 (mouse, strain B6C3F1, males, by gavage, site: lung, lesion: adenoma, dosed 104 weeks, study length 104 weeks): 2790 mg/kg/day (inactive) | TD50 (mouse, strain B6C3F1, males, by gavage, site: lung, lesion: carcinoma, dosed 104 weeks, study length 104 weeks): 2810 mg/kg/day (inactive) | carcinogen call (rat, strain Wistar, females, by gavage, site: any site (literature study), lesion: several types, types named in the paper, dosed 104 weeks, study length 104 weeks): negative (inactive) | carcinogen call (rat, strain Wistar, females, by gavage, site: liver, lesion: several types, types named in the paper, dosed 104 weeks, study length 104 weeks): negative (inactive) | carcinogen call (rat, strain Wistar, males, by gavage, site: any site (literature study), lesion: several types, types named in the paper, dosed 104 weeks, study length 104 weeks): negative (inactive) | carcinogen call (rat, strain Wistar, males, by gavage, site: liver, lesion: several types, types named in the paper, dosed 104 weeks, study length 104 weeks): negative (inactive)

ClC1=C(Cl)[C@]2(Cl)[C@@H]3[C@H]4C[C@H]([C@@H]5O[C@H]45)[C@@H]3[C@@]1(Cl)C2(Cl)Cl
TD50 (mouse, strain B6C3F1, females, in feed, site: any site (literature study), lesion: several types, types named in the paper, dosed 80 weeks, study length 90 weeks): 6.88 mg/kg/day (inactive) | TD50 (mouse, strain B6C3F1, females, in feed, site: lung, lesion: alveolar/bronchiolar adenoma + alveolar/bronchiolar carcinoma, dosed 80 weeks, study length 90 weeks): 67 mg/kg/day | TD50 (mouse, strain B6C3F1, males, in feed, site: any site (literature study), lesion: several types, types named in the paper, dosed 80 weeks, study length 90 weeks): 0.546 mg/kg/day (inactive) | TD50 (mouse, strain B6C3F1, males, in feed, site: liver, lesion: hepatocellular adenoma + hepatocellular carcinoma + neoplastic nodule, dosed 80 weeks, study length 90 weeks): 0.854 mg/kg/day | TD50 (mouse, strain B6C3F1, males, in feed, site: lung, lesion: alveolar/bronchiolar adenoma + alveolar/bronchiolar carcinoma, dosed 80 weeks, study length 90 weeks): 1.27 mg/kg/day | TD50 (rat, strain Osborne-Mendel, females, in feed, site: adrenal gland, lesion: adenoma, NOS + carcinoma, NOS, dosed 80 weeks, study length 109 weeks): 0.227 mg/kg/day (inactive) | carcinogen call (rat, strain Osborne-Mendel, females, in feed, site: any site (literature study), lesion: several types, types named in the paper, dosed 80 weeks, study length 110 weeks): negative (inactive) | carcinogen call (rat, strain Osborne-Mendel, females, in feed, site: any site (literature study), lesion: several types, types named in the paper, dosed 117 weeks, study length 121 weeks): negative (inactive) | TD50 (rat, strain Osborne-Mendel, females, in feed, site: liver, lesion: hemangioma, dosed 117 weeks, study length 121 weeks): 42.3 mg/kg/day (inactive) | TD50 (rat, strain Osborne-Mendel, females, in feed, site: liver, lesion: hepatocellular adenoma + hepatocellular carcinoma + neoplastic nodule, dosed 80 weeks, study length 110 weeks): 7.44 mg/kg/day | TD50 (rat, strain Osborne-Mendel, females, in feed, site: pituitary gland, lesion: adenoma, NOS, dosed 80 weeks, study length 109 weeks): 0.579 mg/kg/day | TD50 (rat, strain Osborne-Mendel, males, in feed, site: adrenal gland, lesion: adenoma, NOS + carcinoma, NOS, dosed 80 weeks, study length 110 weeks): 0.553 mg/kg/day (inactive) | TD50 (rat, strain Osborne-Mendel, males, in feed, site: adrenal gland, lesion: adenoma, NOS, dosed 80 weeks, study length 110 weeks): 0.66 mg/kg/day | TD50 (rat, strain Osborne-Mendel, males, in feed, site: all sites, lesion: hemangioma, dosed 80 weeks, study length 110 weeks): 0.661 mg/kg/day | TD50 (rat, strain Osborne-Mendel, males, in feed, site: any site (literature study), lesion: several types, types named in the paper, dosed 80 weeks, study length 110 weeks): 0.776 mg/kg/day (inactive) | carcinogen call (rat, strain Osborne-Mendel, males, in feed, site: any site (literature study), lesion: several types, types named in the paper, dosed 121 weeks, study length 126 weeks): negative (inactive) | carcinogen call (rat, strain Osborne-Mendel, males, in feed, site: liver, lesion: hemangioma, dosed 121 weeks, study length 126 weeks): negative (inactive) | TD50 (rat, strain Osborne-Mendel, males, in feed, site: pancreatic islets, lesion: islet-cell carcinoma, dosed 80 weeks, study length 110 weeks): 1.75 mg/kg/day

CNc1ncnc2c1ncn2[C@@H]1O[C@H](CO)[C@@H](O)[C@H]1O
TD50 (mouse, strain Swiss CD-1, females, in drinking water, site: liver, lesion: several types, types named in the paper, dosed 34 weeks, study length 115 weeks): 364 mg/kg/day (inactive) | carcinogen call (mouse, strain Swiss CD-1, females, in drinking water, site: lung, lesion: one or several types, types not named, dosed 34 weeks, study length 115 weeks): negative (inactive) | TD50 (mouse, strain Swiss CD-1, males, in drinking water, site: liver, lesion: several types, types named in the paper, dosed 34 weeks, study length 118 weeks): 108 mg/kg/day (inactive) | TD50 (mouse, strain Swiss CD-1, males, in drinking water, site: lung, lesion: one or several types, types not named, dosed 34 weeks, study length 118 weeks): 55.6 mg/kg/day (inactive)

CC1(C)[C@H](C(=O)O[C@H](C#N)c2cccc(Oc3ccccc3)c2)[C@@H]1C=C(Br)Br
carcinogen call (mouse, strain C57BL/6, females, by gavage, site: all sites, lesion: lymphoma, dosed 104 weeks, study length 114 weeks): negative (inactive) | carcinogen call (mouse, strain C57BL/6, females, by gavage, site: any site (literature study), lesion: one or several types, types not named, dosed 104 weeks, study length 114 weeks): negative (inactive) | carcinogen call (mouse, strain C57BL/6, females, by gavage, site: liver, lesion: hepatoma, dosed 104 weeks, study length 114 weeks): negative (inactive) | carcinogen call (mouse, strain C57BL/6, females, by gavage, site: lung, lesion: adenoma, dosed 104 weeks, study length 114 weeks): negative (inactive) | carcinogen call (mouse, strain C57BL/6, males, by gavage, site: any site (literature study), lesion: one or several types, types not named, dosed 104 weeks, study length 114 weeks): negative (inactive) | carcinogen call (mouse, strain C57BL/6, males, by gavage, site: liver, lesion: hepatoma, dosed 104 weeks, study length 114 weeks): negative (inactive) | carcinogen call (mouse, strain C57BL/6, males, by gavage, site: lung, lesion: adenoma, dosed 104 weeks, study length 114 weeks): negative (inactive) | TD50 (rat, strain BD VI, females, by gavage, site: any site (literature study), lesion: one or several types, types not named, dosed 104 weeks, study length 114 weeks): 36.1 mg/kg/day (inactive) | carcinogen call (rat, strain BD VI, females, by gavage, site: liver, lesion: hepatoma, dosed 104 weeks, study length 114 weeks): negative (inactive) | TD50 (rat, strain BD VI, females, by gavage, site: thyroid gland, lesion: adenoma, dosed 104 weeks, study length 114 weeks): 16.9 mg/kg/day (inactive) | carcinogen call (rat, strain BD VI, males, by gavage, site: any site (literature study), lesion: one or several types, types not named, dosed 104 weeks, study length 114 weeks): negative (inactive) | carcinogen call (rat, strain BD VI, males, by gavage, site: liver, lesion: hepatoma, dosed 104 weeks, study length 114 weeks): negative (inactive) | TD50 (rat, strain BD VI, males, by gavage, site: thyroid gland, lesion: adenoma, dosed 104 weeks, study length 114 weeks): 4.6 mg/kg/day (inactive)

CCCCCCCN
carcinogen call (rat, strain Wistar, males, in drinking water, site: any site (literature study), lesion: several types, types named in the paper, dosed 61 weeks, study length 61 weeks): negative (inactive)
